Test results taken from US9486507B2, “Pro-coagulant compounds and methods of use thereof” (priority 2011, dated 2016).
Values joined by “and” are separate entries in the source; they are usually repeats but may differ in a detail not shown here. Equal values may be shown once.

Assays:
Format in all cases: biochemical
[1] = test system: FVIII deficient human plasma; experiment: Thrombin generation assay (TGA) in FVIII-deficient plasma; details: for Thrombin Above Baseline (nM): HRF FVIII-deficient plasma (1)
[2] = test system: purified recombinant human coagulation factors; experiment: Thrombin generation assay using purified hemostatic components
Excerpt: Purified recombinant human coagulation factors V, XI, II, X, IX, VII, VIIa, recombinant tissue factor and antithrombin III (ATIII) were obtained from Haematologic Technologies (Essex Junction, Vt., USA). Lyophilized platelets were from Helena Laboratorires (Beaumont, Tex.); TFPI was from American Diagnostica.

[3] = target: T1, FXa or the prothrombinase complex (Homo sapiens, UniProt P00742); experiment: FXa / prothrombinase activity in purified thrombin generation assay; details: 1 μM; FXa 0.05 ug/mL, with or without FV
T1 construct: Under these conditions FIXa cleaves the zymogen FX into the active form FXa
Protocol: In another experiment it was determined whether or not the compounds of the present disclosure directly enhance the activity of FXa or the prothrombinase complex.

α-thrombin = α-thrombin (Homo sapiens, UniProt P00734); experiment: Fibrin generation assay (thrombin activity); details: compound 5 1 uM; α-thrombin 0 or 0.1 IU/mL
Protocol: The generation of fibrin was determined by measuring the absorbance at OD405 with the Biotek Synergy 2 multi-detection microplate reader.

[4] = test system: FIX-deficient human plasma; experiment: ROTEM in FIX-deficient human plasma
Protocol: Compounds of the present disclosure were tested by rotational thromboelastometry to evaluate coagulation parameters such as clotting time (CT), α-angle, clot formation time (CFT), maximum clot firmness (MCF). Briefly, lyophilized and citrated FVIII deficient human plasma (Siemens) was reconstituted with 1 mL of distilled water, allowed to stand for 20 min at RT and mixed well before use. Alternatively, an aliquot of citrated (non-lyophilized) FVIII deficient human plasma (HRF, George King, Precision Biologics, or real-time donors) was thawed for 10 min in a 37° C. water bath and when needed centrifuged at 2800 g for 5 min at 25° C. FVIII deficient plasma was spiked with lyophilized platelets (Helena Laboratories, final concentration 0.5×10^8 cells/ml) and compounds, FVIII, or both compound and FVIII. Dilutions of compounds of the present disclosure and controls, such as FVIII, were prepared in PBS (—Ca, —Mg). Next, 300 μl of the spiked plasma was transferred to a ROTEM cup already containing 20 μl of StarTEM (concentrated calcium chloride solution) and 20 μl of lipidated TF (American Diagnostica, final concentration 10 fM) or Kaolin (Sigma-Aldrich, final concentration 0.4 μg/ml) and recording was initiated. The cups were maintained at 37° C. during the testing.

[5] = test system: canine FVIII-deficient plasma; experiment: ROTEM in canine FVIII-deficient plasma; details: canine HemA plasma, lyophilized human platelets, 10 fM lipTF
FIXa [6] = target: T2, FIXa (Homo sapiens, UniProt P00740); experiment: FXa generation assay with human FIXa; set-up: purchased Haematologic Technologies
Excerpt: FXa generation was utilized to assess the capability of the compounds of the present disclosure to enhance the catalytic activities of FIXa and/or FVIIa.
To measure the catalytic activity of FIXa, FIXa was mixed with FX and phospholipids in the presence of calcium chloride. Under these conditions FIXa cleaves the zymogen FX into the active form FXa.
The generation of FXa is monitored by the change in absorbance of the reaction at 405 nm due to the presence of a cleavable FXa chromogenic substrate (S-2765; Z-D-Arg-Gly-Arg-pNA; cleavage of p-nitroaniline). […] The kit contains all the FXa generation components, however, FIXa and FX obtained from this kit are from a bovine origin and were replaced with purified human FIXa or human FVIIa and human FX (Haematologic Technologies).
The assay was also modified to enhance the screening throughput. Instead of the sequential addition, all the assay components were mixed and added simultaneously to the purified compound to be assayed. A 125 μl reaction mix of the assay components was prepared in the buffer supplied by the manufacturer (50 mM Tris 7.3, and 1% BSA). […] The reaction mix (125 ul) was then added to 25 ul of compound diluted in water in a Costar-3651 flat bottom 96-well plate. […] The absorbance was monitored over a period of 1 hour at 405 nm using a plate reader (Synergy 2, Biotek).
The 405 nm absorbance data were then analyzed to obtain the slope of the first derivative which reflects the rate of change in absorbance. The first derivative slope data for each compound concentration were plotted against the compound concentration and fitted to a four-parameter equation to obtain the EC50 and Vmax values for each compound tested.

FIXa [7] = target: T2, FIXa; experiment: Km/Kcat of FIXa for the substrate FX (FXa generation assay); set-up: purchased Haematologic Technologies
Protocol: To determine the Km and Kcat of FIXa or FVIIa for the substrate FX, the FXa generation assay described above was used with the following modifications. […] Reactions were set up with varying concentrations of FX ranging between 400 and 0.8 nM and the rates of FXa generation were determined for each peptide at the different FX concentrations tested as described above. […] The catalytic constant (Kcat) was calculated by normalizing the Vmax to the enzyme concentration.
FIXa was used at 10 nM, and FX was used at 10-1000 nM. The assay was performed in the presence of phospholipids (PL) and calcium chloride.

FIXa [8] = target: T2, FIXa; experiment: Heparin accelerated FIXa-AT complex formation assay; set-up: purchased Haematologic Technologies; details: for % FIXa-AT complex formation: with heparin
Protocol: Competition studies between the pro-coagulant peptides and heparin: compounds of the present disclosure were tested in a heparin competition assay in an effort to further map the peptide's binding site on FIXa. FIXa inactivation by antithrombin (AT) was assessed by gel electrophoresis in the presence of heparin and varying procoagulant peptide concentrations. The rate of FIXa-AT complex formation was quantified over a 15 minute time course. […] The samples were incubated at 37° C. in a water bath and 12.5 μL aliquots were removed at each time point (0.5, 2, 5, 10, 15 min) and immediately mixed with 12.5 μL SDS 2× non-reducing sample buffer. The samples were heated at 90° C. for 3 min and loaded onto a 4-20% BioRad gel (20 μL/lane). The gel was run at 300V for 25 min, and the bands were quantified using Quantity One software from BioRad.

[9] = FIX-deficient plasma (containing platelets), 10 μM
[10] = FIX-deficient plasma, compound 5 2.5 μM + FIX-Fc 0.25 IU/mL
[11] = human HemB plasma, lyophilized platelets, 10 fM TF, 5 μM
[12] = human HemB plasma, lyophilized platelets, 10 fM TF, 10 μM
[13] = human HemB plasma, 5 μM, anti-FIX pab +
[14] = human HemB plasma, 5 μM, anti-FIX pab −
[15] = human HemB plasma, 10 μM, anti-FIX pab −
[16] = hFIXa 10 nM, FX 10-1000 nM, PL, CaCl2, compound 1 3 μM, compounds 3, 4, 5 1 μM, compound C 10 μM

T2 sequence (P00740 47-191 limits assumed): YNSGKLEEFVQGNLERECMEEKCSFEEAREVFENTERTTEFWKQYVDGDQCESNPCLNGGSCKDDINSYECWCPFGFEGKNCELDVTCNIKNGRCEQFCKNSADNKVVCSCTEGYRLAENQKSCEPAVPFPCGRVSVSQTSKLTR
T2 sequence (P00740 227-461 limits assumed): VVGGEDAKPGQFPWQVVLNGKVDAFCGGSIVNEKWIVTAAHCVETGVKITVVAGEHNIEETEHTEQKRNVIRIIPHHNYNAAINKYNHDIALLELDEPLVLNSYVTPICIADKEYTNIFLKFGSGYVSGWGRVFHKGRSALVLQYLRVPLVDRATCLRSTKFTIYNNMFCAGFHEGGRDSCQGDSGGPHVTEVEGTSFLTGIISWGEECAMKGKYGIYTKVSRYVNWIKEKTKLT
T1 sequence (P00742 41-179 limits assumed): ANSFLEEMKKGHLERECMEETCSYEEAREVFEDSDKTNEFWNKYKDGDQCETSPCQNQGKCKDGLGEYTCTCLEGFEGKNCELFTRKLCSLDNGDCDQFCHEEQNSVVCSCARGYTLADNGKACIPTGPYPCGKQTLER
T1 sequence (P00742 235-488 limits assumed): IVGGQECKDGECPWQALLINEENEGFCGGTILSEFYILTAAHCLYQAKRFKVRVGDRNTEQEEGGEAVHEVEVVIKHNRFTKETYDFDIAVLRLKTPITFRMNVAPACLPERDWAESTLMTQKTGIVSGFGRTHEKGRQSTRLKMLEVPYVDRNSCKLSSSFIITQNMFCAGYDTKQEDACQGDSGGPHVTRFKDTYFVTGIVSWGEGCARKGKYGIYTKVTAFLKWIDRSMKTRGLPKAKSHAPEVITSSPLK

**Q.** Which results are given for rRAPGKLTCLASYCWLFWTGIA [Compound 5]?
**A.** additive effect with FVIII on thrombin generation ([1]; 0.1 pM lipidated TF, low amounts of rFVIII (FIG. 2)): shows additive thrombin generation activity with FVIII; amount of thrombin generated, as rFVIII equivalent ([1]; 10 μM compound 5, 0.1 pM lipTF): about 0.2 IU/mL; amount of thrombin generated, compared with FVIII ([1]; 5 or 10 μM compound 5, 0.1 pM lipTF): > 0.1 U/mL; Thrombin Above Baseline (nM) ([1]; 2.5 μM): + (1-10 nM (1) or 1-29 nM (2) (+)); Thrombin Above Baseline (nM) ([1]; 5 μM): + (1-10 nM (1) or 1-29 nM (2) (+)); Thrombin Above Baseline (nM) ([1]; 10 μM): ++ (11-20 nM (1) or 30-59 nM (2) (++)); Thrombin Above Baseline (nM) ([1]; 20 μM): ++ (11-20 nM (1) or 30-59 nM (2) (++)); lag time ([1]; compound 5 at 10 μM and 5 μM, 0.1 pM lipTF (FIG. 3)): shorter lag time than 0.1 or 0.25 U/mL of FVIII; thrombin generation, FXIa dependence ([2]; compound 5 1 μM, 0, 50% or 100% FXIa (FIG. 8)): dependent on the FXIa concentration; thrombin generation, FIXa dependence ([2]; compound 5 1 μM, 1%, 10% or 100% (3.1 μg/mL) FIXa (FIG. 7)): dependent on the FIXa concentration; thrombin generation without FIX/FIXa ([2]; compound 5 1 μM, FVII, FVIIa, TF, FV, FX, FII, ATIII, TFPI, platelets): enhanced thrombin generation in the absence of FIX/FIXa; thrombin generation, dose dependence ([2]; compound 5 at 1 nM, 10 nM, 100 nM, 1 μM, 2 μM (FIG. 6)): enhances thrombin generation in a dose-dependent manner; thrombin generation ([2]; compounds 1 μM, FVIII 0.1 or 1 IU/mL (FIG. 5)): induce thrombin generation; catalytic activity of FXa or the prothrombinase complex [3]: did not substantially increase the catalytic activity of FXa or the prothrombinase complex; catalytic activity of thrombin (fibrin generation, OD405) (α-thrombin): did not substantially increase the catalytic activity of thrombin directly; Clotting time, sec [4, 9]: 1,311 sec and 1,328 sec; α-angle, degrees [4, 9]: 15 degrees and 19 degrees; Clotting time [4, 10]: 876.5 s; α-angle [4, 10]: 39.5 degrees; Clotting time [4, 11]: 836 s and 810 s; α-angle, degrees [4, 11]: 24 degrees and 20 degrees; Clotting time [4, 12]: 804 s and 773 s; α-angle, degrees [4, 12]: 22 degrees and 21 degrees; Clotting time, sec [4, 13]: 1,660 sec and 1,661 sec; α-angle, degrees [4, 13]: 9 degrees; Clotting time, sec [4, 14]: 1,420 sec and 1,556 sec; α-angle, degrees [4, 14]: 11 degrees and 12 degrees; α-angle, degrees ([4]; human HemB plasma, 10 μM, anti-FIX pab +): 13 degrees and 10 degrees; Clotting time, sec [4, 15]: 1,182 sec and 1,194 sec; α-angle, degrees [4, 15]: 12; 12 degrees; Clotting time ([5]; 0.625 μM): 687 s and 539 s; α-angle, degrees ([5]; 0.625 μM): 12 degrees; Clotting time ([5]; 2.5 μM): 346 s and 356 s; α-angle, degrees ([5]; 2.5 μM): 15; 15 degrees; Clotting time ([5]; 5 μM): 295 s and 369 s; α-angle, degrees ([5]; 5 μM): 29 degrees and 28 degrees; Clotting time ([5]; 10 μM): 286 s and 294 s; α-angle, degrees ([5]; 10 μM): 58 degrees and 57 degrees; Vmax (FIXa [6]; FXa generation assay, 10 nM hFIXa, 100 nM hFX, class symbols): (+++) ((+++)>2); increase of FIXa catalytic activity, % of control (FIXa [6]; absence of PL): about 80%; Km (FIXa [7]; [16]): 0.011 ± 0.0023 µM; kcat (FIXa [7]; [16]): 0.000298 s⁻¹; Δ kcat FIXa (FIXa [7]; presence vs absence of compound 5): 199; Δ kcat (FIXa [7]; relative to buffer (1.0), compound 1 3 μM, compounds 3, 4, 5 1 μM, compound C 10 μM): 199; inactivation of FIXa by AT (FIXa [8]; absence of heparin): unaffected; heparin-catalyzed FIXa-AT complex formation (FIXa [8]; heparin 100 nM, compound 5 0.1, 1, 10 μM): inhibited the FIXa-AT complex formation in a concentration-dependent manner; % FIXa-AT complex formation (FIXa [8]; Compound 5 0.1 μM, 0.5 min): 57%; % FIXa-AT complex formation (FIXa [8]; Compound 5 0.1 μM, 2 min): 72%; % FIXa-AT complex formation (FIXa [8]; Compound 5 0.1 μM, 5 min): 82%; % FIXa-AT complex formation (FIXa [8]; Compound 5 0.1 μM, 10 min): 82%; % FIXa-AT complex formation (FIXa [8]; Compound 5 0.1 μM, 15 min): 83%; % FIXa-AT complex formation (FIXa [8]; Compound 5 1 μM, 0.5 min): 30%; % FIXa-AT complex formation (FIXa [8]; Compound 5 1 μM, 2 min): 45%; % FIXa-AT complex formation (FIXa [8]; Compound 5 1 μM, 5 min): 55%; % FIXa-AT complex formation (FIXa [8]; Compound 5 1 μM, 10 min): 70%; % FIXa-AT complex formation (FIXa [8]; Compound 5 1 μM, 15 min): 74%; % FIXa-AT complex formation (FIXa [8]; Compound 5 10 μM, 0.5 min): 18%; % FIXa-AT complex formation (FIXa [8]; Compound 5 10 μM, 2 min): 28%; % FIXa-AT complex formation (FIXa [8]; Compound 5 10 μM, 5 min): 41%; % FIXa-AT complex formation (FIXa [8]; Compound 5 10 μM, 10 min): 54%; % FIXa-AT complex formation (FIXa [8]; Compound 5 10 μM, 15 min): 62%
